In one assay the target is TGase (Cavia porcellus, UniProt P08587). It is filed as biochemical. The conditions noted are these: for TG level: level with DMSO control designated as 100. The protocol: An enzyme reaction solution (0.1 ml) (100 mM HEPES-NaOH, pH 7.5, 1 mM CaCl2, 20 μM monodansyl cadaverine, 0.05 mg/ml N,N-dimethylcasein, 5 μg/ml TGase) was introduced into wells of a 96-well plate (Nunc, 96 Well Black Plate with Clear Bottom). A test compound was added in concentrations of 0.3, 1.0, 3.0, 10, and 30 μM. The solution and the compound were sufficiently mixed while preventing foaming. The plate was set in the fluorescence drug screening system FDSS 3000 (Hamamatsu Photonics K.K.). TGase-inhibiting activity of the compound was calculated by assaying changes in fluorescence wavelength (at 340 nm) per unit time. […] The assay level at which TGase activity decreased by half in the presence of the test compound was designated as TG 50.
Hereafter, the numerals in parentheses written after the TG level, the SOCE level, and the IICR level correspond to the test compound concentrations. The number following the name of each title compound used in the Examples below represents a compound ID number designated arbitrarily by the present inventors.

The test system of assay [1] is IICR (IP3 induced calcium release) in CHO cells. The assay is described as follows: Assay of IICR (IP3 induced calcium release)-inhibiting action. Type of assay: cell-based, Chinese hamster. The conditions noted are these: for inhibition at 10 µM / inhibition at 30 µM / inhibition at 100 µM: Cricetulus griseus, CHO, CHO cells, 10 μM ATP, read-out: IICR level (percentage of inhibition); for inhibition at 10 µM: test compound 10 μmol; for inhibition at 30 µM: test compound 30 μmol; for inhibition at 100 µM: test compound 100 μmol. The procedure, abridged: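 CHO cell medium replaced with calcium-containing BSS; compound added 1 min later, then 10 μM ATP after a further 2 min. Percent inhibition of the ATP-evoked rise in intracellular calcium determined at each compound concentration.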

The subject of assay [2] is SOCE (store operated calcium entry) in CHO cells. Nature of the assay: Assay of SOCE (store operated calcium entry)-inhibiting action. Type of assay: cell-based, Chinese hamster. The note with it: Cricetulus griseus, CHO, CHO cells, thapsigargin, read-out: SOCE level (percentage of inhibition); for inhibition at 10 µM: test compound 10 μmol; for inhibition at 30 µM: test compound 30 μmol; for inhibition at 100 µM: test compound 100 μmol. The procedure, abridged: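 CHO cells in calcium-free BSS received compound, then 1 μM thapsigargin 2 min later to deplete stores; after 9 min, 2 mM calcium chloride (final) added. Percent inhibition of the rise in intracellular calcium determined at various compound concentrations.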

Where two headings read alike, the source gives them in different places.

Consider “2-(N-2-hydroxy-3-aminopropyl)aminoethyl-5-bromo-2-thienylketone [Example 8853]”, for which the “TG-activity-inhibiting action or protein-crosslinking-inhibiting action (in words)” value at TGase is “strongly”. In assay [1], the “IICR-inhibiting activity compared with SOCE-inhibiting activity (in words)” value was “higher than SOCE-inhibiting activity”.
On to “2-(N-t-butylbenzyl)aminoethyl-5-bromo-2-thiophenylketone [Example 8778]”, for which the “TG-activity-inhibiting action or protein-crosslinking-inhibiting action (in words)” value on TGase was “strongly”. Moreover, the “IICR-inhibiting activity compared with SOCE-inhibiting activity (in words)” value in assay [1] is “higher than SOCE-inhibiting activity”.
The term inhibition denotes how much of the control response was suppressed. For the compound `COC(=O)C(CSSCC(NCCC(=O)c1ccc2c(c1)Cc1ccccc1-2)C(=O)OC)NCCC(=O)c1ccc2c(c1)Cc1ccccc1-2` (stereo not shown) [Example 404], in assay [1], the inhibition at 10 µM worked out at 54%, the inhibition at 30 µM worked out at 84% and the inhibition at 100 µM is 94%. Further, in assay [2], the inhibition at 10 µM is 20%, the inhibition at 30 µM worked out at 40% and the inhibition at 100 µM stood at 50%.
With `CC(C)(C)N(CCC(=O)c1ccc(I)s1)Cc1ccccc1` [Example 405, 2-(N-t-butyl-N-benzyl)aminoethyl-5-iodo-2-thienylketone], in assay [1], the inhibition at 10 µM was 78%, the inhibition at 30 µM is 73% and the inhibition at 100 µM came to 35%. Also, in assay [2], the inhibition at 10 µM amounted to 20%, the inhibition at 30 µM stood at 40% and the inhibition at 100 µM was 50%.
`COC(=O)C(CSSCC(NCCC(=O)c1ccc(I)s1)C(=O)OC)NCCC(=O)c1ccc(I)s1` (stereo not shown) [Example 406, N,N-bis(5-iodo-2-thiophenoylethyl)cystinemethylester]: in assay [1], the inhibition at 10 µM is 49%, the inhibition at 30 µM worked out at 43% and the inhibition at 100 µM came out at 62%. In addition, in assay [2], the inhibition at 10 µM came to 20%, the inhibition at 30 µM is 40% and the inhibition at 100 µM worked out at 50%.
For the compound `CC(C)(C)N(CCC(=O)c1sccc1Br)Cc1ccccc1` [Example 407, 2-(N-t-butyl-N-benzyl)aminoethyl-3-bromo-2-thienylketone], in assay [1], the inhibition at 10 µM was determined as 89%, the inhibition at 30 µM is 83% and the inhibition at 100 µM turned out to be 77%. For the same compound, in assay [2], the inhibition at 10 µM was 20%, the inhibition at 30 µM came to 40% and the inhibition at 100 µM is 50%.
For `CC(C)(C)N(CCC(=O)c1ncccc1Br)Cc1ccccc1` [Example 408, 2-(N-t-butyl-N-benzyl)aminoethyl-3-bromo-2-pyridylketone], in assay [1], the inhibition at 10 µM turned out to be 76%, the inhibition at 30 µM turned out to be 83% and the inhibition at 100 µM turned out to be 77%. Further, in assay [2], the inhibition at 10 µM came to 20%, the inhibition at 30 µM came out at 40% and the inhibition at 100 µM is 50%.
`COC(=O)C(CSC)NCCC(=O)c1ccc(Br)s1` (stereo not shown) [Example 409, N,N-bis(2-(5-bromo-2-thiophenoyl)ethyl)cystinemethylester]: in assay [1], the inhibition at 10 µM was 26%, the inhibition at 30 µM was found to be 76% and the inhibition at 100 µM turned out to be 81%. Besides, in assay [2], the inhibition at 10 µM was 20%, the inhibition at 30 µM was 40% and the inhibition at 100 µM turned out to be 50%.
For `O=C(CCNCCSSCCNCCC(=O)c1ccc(I)s1)c1ccc(I)s1` [Example 410], in assay [1], the inhibition at 10 µM was 59%, the inhibition at 30 µM worked out at 65% and the inhibition at 100 µM came out at 88%. Further, in assay [2], the inhibition at 10 µM was found to be 20%, the inhibition at 30 µM was found to be 40% and the inhibition at 100 µM was found to be 50%.
Turning to `CCC(C)N(CCC(=O)c1ccc(I)s1)C(C)CC` (stereo not shown) [Example 411], in assay [1], the inhibition at 10 µM came to 76%, the inhibition at 30 µM was 80% and the inhibition at 100 µM came out at 82%. In assay [2], the inhibition at 10 µM came to 20%, the inhibition at 30 µM was found to be 40% and the inhibition at 100 µM was 50%.
Regarding `CCC(C)N(CCC(=O)c1sccc1Br)C(C)CC` (stereo not shown) [Example 413], in assay [1], the inhibition at 10 µM was 48%, the inhibition at 30 µM stood at 81% and the inhibition at 100 µM is 78%. In assay [2], the inhibition at 10 µM turned out to be 20%, the inhibition at 30 µM was 40% and the inhibition at 100 µM amounted to 50%.
For the compound `C=CC(=O)c1ccccc1` [Example 8184, acryloylbenzene], on TGase, the “TG-activity-inhibiting action or protein-crosslinking-inhibiting action (in words)” value was “high”.
`C=CC(=O)c1ccc(C)cc1` [Example 8185, 4-methyl-1-acryloylbenzene]: at TGase, the “TG-activity-inhibiting action or protein-crosslinking-inhibiting action (in words)” value is “high”.
Take `C=CC(=O)c1ccc(F)cc1` [Example 8186, 4-fluoro-1-acryloylbenzene]: the “TG-activity-inhibiting action or protein-crosslinking-inhibiting action (in words)” value at TGase was “high”.
In the case of `C=CC(=O)c1cc2c(cc1Br)OCO2` [Example 8200, 2-bromo-4,5-dioxymethylene-1-acryloylbenzene], at TGase, the “TG-activity-inhibiting action or protein-crosslinking-inhibiting action (in words)” value is on record as “high”.
On the same count and under the same terms, in the case of `C=CC(=O)c1ccc2c(C)cccc2c1` [Example 8211, 1-methyl-6-acryloylnaphthalene] it was “high”; in that of `C=CC(=O)c1ccc2ccccc2c1` [Example 8213, 2-acryloylnaphthalene], “high”.
For the compound `C=CC(=O)c1ccc2c(F)cccc2c1` [Example 8257, 1-fluoro-6-acryloylnaphthalene], on TGase, the “TG-activity-inhibiting action or protein-crosslinking-inhibiting action (in words)” value was “high”.
In the case of `C=CC(=O)c1ccc(Br)cc1` [Example 8266, 1-acryloyl-4-bromobenzene], the “TG-activity-inhibiting action or protein-crosslinking-inhibiting action (in words)” value on TGase is recorded as “high”.
Turning to `C=CC(=O)C(c1ccccc1)c1ccccc1` [Example 8269, Acryloyldiphenylmethane], the “TG-activity-inhibiting action or protein-crosslinking-inhibiting action (in words)” value on TGase is recorded as “high”.
As to `CC(C)N(CCC(=O)c1ccc(Cc2ccccc2)cc1)Cc1ccccc1` [Example 8285, 2-(N-isopropylbenzyl)aminoethyl-4-benzylphenylketone], at TGase, the “TG-activity-inhibiting action or protein-crosslinking-inhibiting action (in words)” value is recorded as “strongly”. Also, the “IICR-inhibiting activity compared with SOCE-inhibiting activity (in words)” value in assay [1] is listed as “higher than SOCE-inhibiting activity”.
In the case of `C=CC(=O)c1cccc2ccccc12` [Example 8293, 1-acryloylnaphthalene], the “TG-activity-inhibiting action or protein-crosslinking-inhibiting action (in words)” value on TGase is listed as “high”.
For the compound `CC(C)N(CCC(=O)c1ccccn1)Cc1ccccc1` [Example 8305, 2-(N-isopropylbenzyl)aminoethyl-2-pyridylketone], the “TG-activity-inhibiting action or protein-crosslinking-inhibiting action (in words)” value at TGase is given as “strongly”. Also, in assay [1], the “IICR-inhibiting activity compared with SOCE-inhibiting activity (in words)” value is on record as “higher than SOCE-inhibiting activity”.
For `CC(C)N(CCC(=O)c1ccco1)Cc1ccccc1` [Example 8370, 2-(N-isopropylbenzyl)aminoethyl-2-furylketone], the “TG-activity-inhibiting action or protein-crosslinking-inhibiting action (in words)” value on TGase is given as “strongly”. Moreover, in assay [1], the “IICR-inhibiting activity compared with SOCE-inhibiting activity (in words)” value is recorded as “higher than SOCE-inhibiting activity”.
Turning to `O=C(CCN(CCO)Cc1ccccc1)c1cnccn1` [Example 8397, 2-(N-benzylhydroxyethyl)aminoethyl-2-pyrazylketone], the “TG-activity-inhibiting action or protein-crosslinking-inhibiting action (in words)” value on TGase is reported as “strongly”. Besides, in assay [1], the “IICR-inhibiting activity compared with SOCE-inhibiting activity (in words)” value is “higher than SOCE-inhibiting activity”.
For Methyl vinylketone [Example 57], the results for the TG level on TGase (test compound 3 μmol), on TGase (test compound 10 μmol) and on TGase (test compound 30 μmol) were 84, 94 and 37, respectively.

Source of the values: patent publication US8937091B2 (Japan Science and Technology Agency, priority 2009, dated 2015).
